Test results reported in patent US12441703B2, “Carboxamides as modulators of sodium channels” (VERTEX PHARMACEUTICALS INCORPORATED, priority 2019, dated 2025).

What follows are compounds tested against human NaV 1.8 (Homo sapiens, UniProt Q9Y5Y9) (assay: E-VIPR assay for detecting and measuring NaV inhibition properties). Conditions: E-VIPR assay conducted in the presence of human serum; HEK cells expressing truncated human NaV 1.8; read-out: IC50.
Sequence of human NaV 1.8 (Q9Y5Y9 whole entry, looked up, the tested form may be a part): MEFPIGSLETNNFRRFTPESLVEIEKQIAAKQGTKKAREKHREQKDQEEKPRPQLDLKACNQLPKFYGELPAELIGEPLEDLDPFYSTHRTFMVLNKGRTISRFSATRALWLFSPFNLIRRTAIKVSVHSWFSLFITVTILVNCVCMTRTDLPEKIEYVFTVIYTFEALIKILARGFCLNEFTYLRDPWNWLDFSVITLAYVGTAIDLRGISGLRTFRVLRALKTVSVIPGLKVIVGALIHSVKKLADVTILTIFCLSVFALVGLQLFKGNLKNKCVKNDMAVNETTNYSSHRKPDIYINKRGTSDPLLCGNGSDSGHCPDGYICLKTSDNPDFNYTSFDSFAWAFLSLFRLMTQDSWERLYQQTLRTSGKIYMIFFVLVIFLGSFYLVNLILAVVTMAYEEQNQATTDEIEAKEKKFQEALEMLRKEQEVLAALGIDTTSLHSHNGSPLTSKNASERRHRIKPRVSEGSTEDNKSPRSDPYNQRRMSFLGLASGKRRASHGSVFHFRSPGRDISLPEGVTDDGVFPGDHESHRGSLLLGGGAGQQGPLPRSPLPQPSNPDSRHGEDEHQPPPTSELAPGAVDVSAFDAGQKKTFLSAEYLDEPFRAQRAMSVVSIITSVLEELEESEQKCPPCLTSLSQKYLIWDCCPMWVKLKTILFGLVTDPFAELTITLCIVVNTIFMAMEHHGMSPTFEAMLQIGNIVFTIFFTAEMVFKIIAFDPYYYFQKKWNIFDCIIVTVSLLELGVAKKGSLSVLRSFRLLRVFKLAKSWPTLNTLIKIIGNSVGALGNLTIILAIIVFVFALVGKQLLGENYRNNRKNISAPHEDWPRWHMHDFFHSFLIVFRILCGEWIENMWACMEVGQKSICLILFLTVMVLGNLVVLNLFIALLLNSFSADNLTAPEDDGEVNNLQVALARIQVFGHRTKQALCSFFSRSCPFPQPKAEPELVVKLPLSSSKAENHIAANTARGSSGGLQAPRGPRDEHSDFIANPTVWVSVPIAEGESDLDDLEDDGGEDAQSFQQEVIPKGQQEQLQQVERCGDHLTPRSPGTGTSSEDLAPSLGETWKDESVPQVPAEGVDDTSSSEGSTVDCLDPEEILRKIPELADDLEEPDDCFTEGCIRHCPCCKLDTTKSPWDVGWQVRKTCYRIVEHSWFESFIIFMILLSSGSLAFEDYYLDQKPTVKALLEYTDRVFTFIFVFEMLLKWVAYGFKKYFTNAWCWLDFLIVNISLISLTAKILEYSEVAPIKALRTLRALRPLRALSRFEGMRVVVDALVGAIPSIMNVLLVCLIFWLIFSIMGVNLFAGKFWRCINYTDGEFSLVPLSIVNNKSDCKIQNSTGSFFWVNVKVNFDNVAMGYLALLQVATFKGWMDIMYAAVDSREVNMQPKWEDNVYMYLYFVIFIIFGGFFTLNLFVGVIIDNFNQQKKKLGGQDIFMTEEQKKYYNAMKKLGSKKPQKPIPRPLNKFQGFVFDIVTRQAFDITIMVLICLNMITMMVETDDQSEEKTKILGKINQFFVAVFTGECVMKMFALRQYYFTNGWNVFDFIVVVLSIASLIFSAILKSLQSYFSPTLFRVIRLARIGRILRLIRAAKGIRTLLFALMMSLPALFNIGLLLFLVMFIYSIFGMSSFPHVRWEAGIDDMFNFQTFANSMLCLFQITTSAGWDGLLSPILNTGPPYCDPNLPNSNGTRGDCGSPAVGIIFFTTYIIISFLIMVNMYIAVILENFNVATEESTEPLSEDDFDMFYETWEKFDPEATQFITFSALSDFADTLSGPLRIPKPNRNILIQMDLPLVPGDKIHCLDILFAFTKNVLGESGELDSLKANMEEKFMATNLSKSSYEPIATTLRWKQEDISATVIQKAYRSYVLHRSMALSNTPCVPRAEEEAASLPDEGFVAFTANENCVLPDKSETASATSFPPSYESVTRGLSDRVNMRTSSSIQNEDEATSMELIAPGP
Type: cell-based
In short: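 Membrane-potential (coumarin/oxonol) readout after 10 s of 10 Hz biphasic electrical stimulation on E-VIPR. Compounds: 11-point 3-fold dilutions, […], 0.625% DMSO, 30 min at room temperature, human serum optional. Cells: HEK expressing truncated human NaV1.8 co-transduced with KIR2.1.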
For Cc1c(C(F)(F)F)ccc(Oc2ccc(F)c(F)c2)c1C(=O)Nc1ccnc(C(N)=O)c1 [Compound 126, 4-[[6-(3,4-difluorophenoxy)-2-methyl-3-(trifluoromethyl)benzoyl]amino]pyridine-2-carboxamide], the IC50 was 180 nM. For Cc1c(C(F)(F)F)ccc(Oc2ccc(F)c(Cl)c2)c1C(=O)Nc1ccnc(C(N)=O)c1 [Compound 127, 4-[[6-(3-chloro-4-fluoro-phenoxy)-2-methyl-3-(trifluoromethyl)benzoyl]amino]pyridine-2-carboxamide], the IC50 was 150 nM. Compound Cc1c(C(F)(F)F)ccc(Oc2ccc(OC(F)(F)F)cc2F)c1C(=O)Nc1ccnc(C(N)=O)c1 [Compound 128, 4-[[6-[2-fluoro-4-(trifluoromethoxy)phenoxy]-2-methyl-3-(trifluoromethyl)benzoyl]amino]pyridine-2-carboxamide] has an IC50 of 83 nM. Work on Cc1cc(F)ccc1Oc1ccc(C(F)(F)F)c(C)c1C(=O)Nc1ccnc(C(N)=O)c1 [Compound 129, 4-[[6-(4-fluoro-2-methyl-phenoxy)-2-methyl-3-(trifluoromethyl)benzoyl]amino]pyridine-2-carboxamide] yielded an IC50 of 20 nM. With CCOc1ccc(Oc2ccc(C(F)(F)F)c(C)c2C(=O)Nc2ccnc(C(N)=O)c2)c(F)c1F [Compound 130, 4-[[6-(4-ethoxy-2,3-difluoro-phenoxy)-2-methyl-3-(trifluoromethyl)benzoyl]amino]pyridine-2-carboxamide] the IC50 was 40 nM. In the case of Cc1c(C(F)(F)F)ccc(Oc2ccc(F)cc2F)c1C(=O)Nc1ccnc(C(N)=O)c1 [Compound 131, 4-[[6-(2,4-difluorophenoxy)-2-methyl-3-(trifluoromethyl)benzoyl]amino]pyridine-2-carboxamide], the IC50 is reported as 155 nM. Compound Cc1c(C(F)(F)F)ccc(Oc2ccc(OC(C)C)cc2F)c1C(=O)Nc1ccnc(C(N)=O)c1 [Compound 132, 4-[[6-(2-fluoro-4-isopropoxy-phenoxy)-2-methyl-3-(trifluoromethyl)benzoyl]amino]pyridine-2-carboxamide] has an IC50 greater than 3000 nM. In the case of Cc1cc(OC(F)(F)F)ccc1Oc1ccc(C(F)(F)F)c(C)c1C(=O)Nc1ccnc(C(N)=O)c1 [Compound 133, 4-[[2-methyl-6-[2-methyl-4-(trifluoromethoxy)phenoxy]-3-(trifluoromethyl)benzoyl]amino]pyridine-2-carboxamide], the IC50 is reported as 9 nM. For COc1cc(Cl)ccc1Oc1ccc(C(F)(F)F)c(C)c1C(=O)Nc1ccnc(C(N)=O)c1 [Compound 134, 4-[[6-(4-chloro-2-methoxy-phenoxy)-2-methyl-3-(trifluoromethyl)benzoyl]amino]pyridine-2-carboxamide], the IC50 was 120 nM. For Cc1c(C(F)(F)F)ccc(Oc2ccc(Cl)cc2F)c1C(=O)Nc1ccnc(C(N)=O)c1 [Compound 135, 4-[[6-(4-chloro-2-fluoro-phenoxy)-2-methyl-3-(trifluoromethyl)benzoyl]amino]pyridine-2-carboxamide], the IC50 was 470 nM. For Cc1cc(Cl)ccc1Oc1ccc(C(F)(F)F)c(C)c1C(=O)Nc1ccnc(C(N)=O)c1 [Compound 136, 4-[[6-(4-chloro-2-methyl-phenoxy)-2-methyl-3-(trifluoromethyl)benzoyl]amino]pyridine-2-carboxamide], the IC50 was 140 nM. COc1cc(F)ccc1Oc1ccc(C(F)(F)F)c(C)c1C(=O)Nc1ccnc(C(N)=O)c1 [Compound 137, 4-[[6-(4-fluoro-2-methoxy-phenoxy)-2-methyl-3-(trifluoromethyl)benzoyl]amino]pyridine-2-carboxamide] gave an IC50 of 54 nM. Cc1c(C(F)(F)F)ccc(Oc2ccc(OC(F)(F)F)c(Cl)c2)c1C(=O)Nc1ccnc(C(N)=O)c1 [Compound 138, 4-[[6-[3-chloro-4-(trifluoromethoxy)phenoxy]-2-methyl-3-(trifluoromethyl)benzoyl]amino]pyridine-2-carboxamide] gave an IC50 of 20 nM. Cc1c(C(F)(F)F)ccc(Oc2ccc(OC(F)(F)F)c(F)c2)c1C(=O)Nc1ccnc(C(N)=O)c1 [Compound 139, 4-[[6-[3-fluoro-4-(trifluoromethoxy)phenoxy]-2-methyl-3-(trifluoromethyl)benzoyl]amino]pyridine-2-carboxamide] gave an IC50 of 33 nM. With Cc1c(C(F)(F)F)ccc(Oc2ccc(F)c(F)c2F)c1C(=O)Nc1ccnc(C(N)=O)c1 [Compound 140, 4-[[2-methyl-3-(trifluoromethyl)-6-(2,3,4-trifluorophenoxy)benzoyl]amino]pyridine-2-carboxamide] the IC50 was 68 nM. Cc1c(F)ccc(Oc2ccc(C(F)(F)F)c(C)c2C(=O)Nc2ccnc(C(N)=O)c2)c1C [Compound 141, 4-[[6-(4-fluoro-2,3-dimethyl-phenoxy)-2-methyl-3-(trifluoromethyl)benzoyl]amino]pyridine-2-carboxamide] gave an IC50 of 220 nM. Compound Cc1cc(Cl)cc(Cl)c1Oc1ccc(C(F)(F)F)c(C)c1C(=O)Nc1ccnc(C(N)=O)c1 [Compound 142, 4-[[6-(2,4-dichloro-6-methyl-phenoxy)-2-methyl-3-(trifluoromethyl)benzoyl]amino]pyridine-2-carboxamide] has an IC50 of 1700 nM. With Cc1c(C(F)(F)F)ccc(Oc2c(F)cc(F)cc2F)c1C(=O)Nc1ccnc(C(N)=O)c1 [Compound 143, 4-[[2-methyl-3-(trifluoromethyl)-6-(2,4,6-trifluorophenoxy)benzoyl]amino]pyridine-2-carboxamide] the IC50 was greater than 3000 nM. Compound Cc1cc(Cl)cc(C)c1Oc1ccc(C(F)(F)F)c(C)c1C(=O)Nc1ccnc(C(N)=O)c1 [Compound 144, 4-[[6-(4-chloro-2,6-dimethyl-phenoxy)-2-methyl-3-(trifluoromethyl)benzoyl]amino]pyridine-2-carboxamide] has an IC50 of 765 nM. COc1cc(C)cc(OC)c1Oc1ccc(C(F)(F)F)c(C)c1C(=O)Nc1ccnc(C(N)=O)c1 [Compound 145, 4-[[6-(2,6-dimethoxy-4-methyl-phenoxy)-2-methyl-3-(trifluoromethyl)benzoyl]amino]pyridine-2-carboxamide] was tested, and the IC50 was greater than 3000 nM. Cc1c(C(F)(F)F)ccc(Oc2ccc(OC(F)(F)F)cc2Cl)c1C(=O)Nc1ccnc(C(N)=O)c1 [Compound 146, 4-[[6-[2-chloro-4-(trifluoromethoxy)phenoxy]-2-methyl-3-(trifluoromethyl)benzoyl]amino]pyridine-2-carboxamide] gave an IC50 of 17 nM. COc1c(Oc2ccc(C(F)(F)F)c(C)c2C(=O)Nc2ccnc(C(N)=O)c2)ccc(OC(F)(F)F)c1F [Compound 147, 4-[[6-[3-fluoro-2-methoxy-4-(trifluoromethoxy)phenoxy]-2-methyl-3-(trifluoromethyl)benzoyl]amino]pyridine-2-carboxamide] was tested, and the IC50 was 3 nM. Cc1c(C(F)(F)F)ccc(Oc2ccc(OC(F)(F)F)cc2C2CC2)c1C(=O)Nc1ccnc(C(N)=O)c1 [Compound 148, 4-[[6-[2-cyclopropyl-4-(trifluoromethoxy)phenoxy]-2-methyl-3-(trifluoromethyl)benzoyl]amino]pyridine-2-carboxamide] was tested, and the IC50 was 9 nM. Compound Cc1c(Oc2ccc(C(F)(F)F)c(C)c2C(=O)Nc2ccnc(C(N)=O)c2)ccc(F)c1F [Compound 149, 4-[[6-(3,4-difluoro-2-methyl-phenoxy)-2-methyl-3-(trifluoromethyl)benzoyl]amino]pyridine-2-carboxamide] has an IC50 of 19 nM. COc1cc(OC(F)(F)F)ccc1Oc1ccc(C(F)(F)F)c(F)c1C(=O)Nc1cc[n+]([O-])c(C(N)=O)c1 [Compound 150, 4-[[2-fluoro-6-[2-methoxy-4-(trifluoromethoxy)phenoxy]-3-(trifluoromethyl)benzoyl]amino]-1-oxido-pyridin-1-ium-2-carboxamide] showed an IC50 of 2 nM. COc1cc(OC(F)(F)F)ccc1Oc1ccc(C(F)(F)F)c(C)c1C(=O)Nc1ccnc(C(N)=O)c1 [Compound 151, 4-[[6-[2-methoxy-4-(trifluoromethoxy)phenoxy]-2-methyl-3-(trifluoromethyl)benzoyl]amino]pyridine-2-carboxamide] gave an IC50 of 4 nM. COc1cc(OC(F)(F)F)ccc1Oc1ccc(C(F)(F)F)c(C)c1C(=O)Nc1ccc(C(N)=O)nc1 [Compound 152] gave an IC50 of 12 nM. COc1cc(OC(F)(F)F)ccc1Oc1ccc(C(F)(F)F)c(C)c1C(=O)Nc1cc(C(N)=O)ncc1C [Compound 153] was tested, and the IC50 was 7 nM. Compound COc1cc(OC(F)(F)F)ccc1Oc1cc(-c2ccoc2)ccc1C(=O)Nc1ccnc(C(N)=O)c1 [Compound 154, 4-[[4-(3-furyl)-2-[2-methoxy-4-(trifluoromethoxy)phenoxy]benzoyl]amino]pyridine-2-carboxamide] has an IC50 of 988 nM. COc1cc(OC(F)(F)F)ccc1Oc1cc(-c2ccc(Cl)cc2)ccc1C(=O)Nc1ccnc(C(N)=O)c1 [Compound 155, 4-[[4-(4-chlorophenyl)-2-[2-methoxy-4-(trifluoromethoxy)phenoxy]benzoyl]amino]pyridine-2-carboxamide] gave an IC50 of 505 nM. Work on COc1cc(OC(F)(F)F)ccc1Oc1cc(-c2ccc(F)cc2)ccc1C(=O)Nc1ccnc(C(N)=O)c1 [Compound 156, 4-[[4-(4-fluorophenyl)-2-[2-methoxy-4-(trifluoromethoxy)phenoxy]benzoyl]amino]pyridine-2-carboxamide] yielded an IC50 of 730 nM. Work on COc1cc(OC(F)(F)F)ccc1Oc1cc(-c2ccc(C(F)(F)F)cc2)ccc1C(=O)Nc1ccnc(C(N)=O)c1 [Compound 157, 4-[[2-[2-methoxy-4-(trifluoromethoxy)phenoxy]-4-[4-(trifluoromethyl)phenyl]benzoyl]amino]pyridine-2-carboxamide] yielded an IC50 of 408 nM. Compound COc1cc(F)ccc1Oc1cc(C(F)(F)F)ccc1C(=O)Nc1ccnc(C(N)=O)c1 [Compound 159, 4-[[2-(4-fluoro-2-methoxy-phenoxy)-4-(trifluoromethyl)benzoyl]amino]pyridine-2-carboxamide] has an IC50 greater than 3000 nM. In the case of CC(C)Oc1ccc(Oc2cc(C(F)(F)F)ccc2C(=O)Nc2ccnc(C(N)=O)c2)cc1F [Compound 160, 4-[[2-(3-fluoro-4-isopropoxy-phenoxy)-4-(trifluoromethyl)benzoyl]amino]pyridine-2-carboxamide], the IC50 is reported as greater than 3000 nM.
